Test system: 354836-022-R-J1-PDC multicell spheroid viability
Test: Anticancer human tumor 354836-022-R-J1-PDC patient-derived head and neck squamous cell carcinoma cell line growth inhibition [PI3K]
Conditions: for IC50: curve of first compound; for viability, T/C: stronger effect = lower value; active = viability on the fitted dose curve at most 10% of control; inactive = the rest
From the text: Combinatorial screen of targeted agents with the PI3K inhibitors inavolisib, alpelisib, duvelisib, and copanlisib in multi-cell type tumor spheroids
A high-throughput screen of multi-cell type tumor spheroids was designed to identify active combinations of targeted small molecules and PI3K pathway inhibitors. Complex spheroids include a stromal component modeled by human endothelial cells (HUVEC) and fibroblasts modeled by human mesenchymal stem cells (MSCs). The concentration ranges selected for each drug and investigational agent were based upon clinically achievable concentrations if the clinical Cmax of the agent was known.
Compounds. The drugs and investigational agents: inavolisib (NSC800729), alpelisib (NSC765974), duvelisib (NSC772469), copanlisib (NSC816437), ipatasertib (NSC767898), afuresertib (NSC778305), talazoparib (NSC767125), sapanisertib (NSC764658), selumetinib (NSC741078), tovorafenib (DAY101, NSC766906), vemurafenib (NSC761431), ravoxertinib (NSC781343), sotorasib (NSC818433), MRTX1133 (NSC 836407), abemaciclib (NSC 768073), palbociclib (NSC758247), venetoclax (NSC 766270), SY5609 (NSC837396), enzalutamide (NSC755605), and darolutamide (NSC825331), were obtained from the National Cancer Institute (NCI) Developmental Therapeutics Program Chemical Repository. The FDA-approved anticancer drug set is available from the NCI Developmental Therapeutics Program. […] The stock solutions were prepared in dimethyl sulfoxide (DMSO, Sigma-Aldrich, St. Louis, MO, cat. D2650) at 800-fold the tested concentration and stored at -70 degrees C prior to their use. All drugs and investigational agents were tested over a range starting from a high concentration at or near the clinical Cmax and decreasing in half-log increments. If the clinical Cmax for an agent had not been determined, the highest concentration tested was 10 microM.
Cell Culture. All cells were maintained in an incubator at 37 degrees C and 5% CO2 with 95% humidity. The PDC lines were cultured according to standard operating procedures established by the NCI PDMR (https://pdmr.cancer.gov/sops/default.htm). All PDCs were thawed and cultured in Matrigel-coated flasks prepared with a working solution of 1X Ham's F-12 nutrient mix, without supplementation (Invitrogen, Waltham, MA, cat. 11765054), 100 U/mL penicillin-streptomycin (Invitrogen, cat. 15140122), and 2.5% Matrigel (Corning Inc., Corning, NY, cat. 354248) for the first three passages. The 354836-022-R-J1-PDC, 475296-252-R-J1-PDC, and 997726-040-R-J2-PDC lines were cultured in 6A media, which includes advanced DMEM/F-12 (Thermo Fisher Scientific, cat. 12634028), 10 mM HEPES (Thermo Fisher Scientific, cat. 15630080), 1X GlutaMAX supplement (Thermo Fisher Scientific, cat. 35050061), 0.1 mg/mL primocin (InvivoGen, San Diego, CA, cat. ant-pm-2), 10% defined fetal bovine serum, heat inactivated (HyClone Laboratories Inc., Logan, UT, cat. SH30070.03HI), 50% L-WRN conditioned media (ATCC, cat. CRL-3276), 1.25 mM N-Acetyl-L-cysteine (Sigma-Aldrich, cat. A9165), 10 mM nicotinamide (Sigma-Aldrich, cat. N0636), 1X B-27 supplement (Thermo Fisher Scientific, cat. 17504044), 1X N-2 supplement (Thermo Fisher Scientific, cat. 17502048), and 10 microM Y-27632 dihydrochloride (Tocris Bioscience, Bristol, United Kingdom, cat. 1254). The 624824-186-R-J2-PDC line was cultured in 6C/Colon 1B media, which includes all 6A media components plus 50 ng/mL human EGF recombinant protein (Thermo Fisher Scientific, cat. PHG0311). […]

[1] = second compound 0.0316 µM, first compound 0.0316 µM
[2] = second compound 0.0316 µM, first compound 0.1 µM
[3] = second compound 0.0316 µM, first compound 0.316 µM
[4] = second compound 0.0316 µM, first compound 1 µM
[5] = second compound 0.1 µM, first compound 0.0316 µM
[6] = second compound 0.1 µM, first compound 0.1 µM
[7] = second compound 0.1 µM, first compound 0.316 µM
[8] = second compound 0.1 µM, first compound 1 µM
[9] = second compound 0.316 µM, first compound 0.0316 µM
[10] = second compound 0.316 µM, first compound 0.1 µM
[11] = second compound 0.316 µM, first compound 0.316 µM
[12] = second compound 0.316 µM, first compound 1 µM
[13] = second compound 1 µM, first compound 0.0316 µM
[14] = second compound 1 µM, first compound 0.1 µM
[15] = second compound 1 µM, first compound 0.316 µM
[16] = second compound 1 µM, first compound 1 µM
[17] = second compound 3.16 µM, first compound 0.0316 µM
[18] = second compound 3.16 µM, first compound 0.1 µM
[19] = second compound 3.16 µM, first compound 0.316 µM
[20] = second compound 3.16 µM, first compound 1 µM
[21] = second compound 10 µM, first compound 0.0316 µM
[22] = second compound 10 µM, first compound 0.1 µM
[23] = second compound 10 µM, first compound 0.316 µM
[24] = second compound 10 µM, first compound 1 µM
[25] = second compound 0.0316 µM, first compound 3.16 µM
[26] = second compound 0.0316 µM, first compound 10 µM
[27] = second compound 0.1 µM, first compound 3.16 µM
[28] = second compound 0.1 µM, first compound 10 µM
[29] = second compound 0.316 µM, first compound 3.16 µM
[30] = second compound 0.316 µM, first compound 10 µM
[31] = second compound 1 µM, first compound 3.16 µM
[32] = second compound 1 µM, first compound 10 µM
[33] = second compound 3.16 µM, first compound 3.16 µM
[34] = second compound 3.16 µM, first compound 10 µM
[35] = second compound 10 µM, first compound 3.16 µM
[36] = second compound 10 µM, first compound 10 µM
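Also: spheroids exposed to agents for seven days before the viability read.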

CCN1CCN(Cc2ccc(Nc3ncc(F)c(-c4cc(F)c5nc(C)n(C(C)C)c5c4)n3)nc2)CC1 + CC(Nc1ncnc2nc[nH]c12)c1cc2cccc(Cl)c2c(=O)n1-c1ccccc1
> 1 µM: IC50 (second compound 0.1 µM) | IC50 (second compound 0.316 µM)
inactive: viability, T/C (second compound 0.0316 µM, first compound 0.00316 µM) 109% | viability, T/C (second compound 0.0316 µM, first compound 0.01 µM) 103% | viability, T/C [1] 97.6% | viability, T/C [2] 96.7% | viability, T/C [3] 81.7% | viability, T/C [4] 47.3% | viability, T/C (second compound 0.1 µM, first compound 0.00316 µM) 106% | viability, T/C (second compound 0.1 µM, first compound 0.01 µM) 109% | viability, T/C [5] 91.7% | viability, T/C [6] 103% | viability, T/C [7] 99.5% | viability, T/C [8] 61.2% | viability, T/C (second compound 0.316 µM, first compound 0.00316 µM) 103% | viability, T/C (second compound 0.316 µM, first compound 0.01 µM) 102% | viability, T/C [9] 102% | viability, T/C [10] 104% | viability, T/C [11] 89.4% | viability, T/C [12] 58.1% | viability, T/C (second compound 1 µM, first compound 0.00316 µM) 119% | viability, T/C (second compound 1 µM, first compound 0.01 µM) 104% | viability, T/C [13] 94.9% | viability, T/C [14] 109% | viability, T/C [15] 91.6% | viability, T/C [16] 47.8% | viability, T/C (second compound 3.16 µM, first compound 0.00316 µM) 97.9% | viability, T/C (second compound 3.16 µM, first compound 0.01 µM) 110% | viability, T/C [17] 94.2% | viability, T/C [18] 100% | viability, T/C [19] 93.7% | viability, T/C [20] 38.5% | viability, T/C (second compound 10 µM, first compound 0.00316 µM) 92.5% | viability, T/C (second compound 10 µM, first compound 0.01 µM) 92.8% | viability, T/C [21] 90.1% | viability, T/C [22] 86.4% | viability, T/C [23] 83.8% | viability, T/C [24] 29.6%
0.788 µM: IC50 (second compound 3.16 µM)
0.643 µM: IC50 (second compound 10 µM)
0.954 µM: IC50 (second compound 1 µM)
0.917 µM: IC50 (second compound 0.0316 µM)

Cn1ncc(Cl)c1-c1cc(C(=O)NC(CN)Cc2cccc(F)c2)sc1Cl (stereo unspecified) + CC(Nc1ncnc2nc[nH]c12)c1cc2cccc(Cl)c2c(=O)n1-c1ccccc1
inactive: viability, T/C [1] 74.6% | viability, T/C [2] 48.9% | viability, T/C [3] 31.8% | viability, T/C [4] 15.1% | viability, T/C [5] 70.7% | viability, T/C [6] 61.4% | viability, T/C [7] 36.3% | viability, T/C [8] 17.7% | viability, T/C [9] 74.1% | viability, T/C [10] 52.5% | viability, T/C [11] 30.3% | viability, T/C [12] 17.8% | viability, T/C [13] 65.6% | viability, T/C [14] 67% | viability, T/C [15] 29.6% | viability, T/C [16] 19.3% | viability, T/C [17] 75.6% | viability, T/C [18] 68.1% | viability, T/C [19] 39.5% | viability, T/C [20] 20.9% | viability, T/C [21] 70.8% | viability, T/C [22] 59.7% | viability, T/C [23] 31.8% | viability, T/C [24] 18.9%
0.215 µM: IC50 (second compound 3.16 µM)
0.145 µM: IC50 (second compound 10 µM)
0.1 µM: IC50 (second compound 0.0316 µM)
0.162 µM: IC50 (second compound 1 µM)
0.168 µM: IC50 (second compound 0.1 µM)
0.112 µM: IC50 (second compound 0.316 µM)
active: viability, T/C [25] 5.4% | viability, T/C [26] 1.88% | viability, T/C [27] 5.21% | viability, T/C [28] 1.62% | viability, T/C [29] 5.75% | viability, T/C [30] 1.5% | viability, T/C [31] 5.53% | viability, T/C [32] 1.8% | viability, T/C [33] 7.18% | viability, T/C [34] 2.1% | viability, T/C [35] 8.1% | viability, T/C [36] 2.22%

CC(C)NCC(C(=O)N1CCN(c2ncnc3c2C(C)CC3O)CC1)c1ccc(Cl)cc1 (stereo unspecified) + Cc1nc(NC(=O)N2CCCC2C(N)=O)sc1-c1ccnc(C(C)(C)C(F)(F)F)c1
0.24 µM: IC50 (second compound 0.0316 µM)
0.116 µM: IC50 (second compound 3.16 µM)
0.221 µM: IC50 (second compound 0.1 µM)
0.401 µM: IC50 (second compound 1 µM)
0.225 µM: IC50 (second compound 0.316 µM)
active: viability, T/C [28] 10.2% | viability, T/C [30] 6.96% | viability, T/C [34] 6.1% | viability, T/C [35] 8.39% | viability, T/C [36] 4.1%
inactive: viability, T/C [1] 96% | viability, T/C [2] 64.5% | viability, T/C [3] 50.7% | viability, T/C [4] 22.4% | viability, T/C [25] 18.8% | viability, T/C [26] 12.2% | viability, T/C [5] 78.9% | viability, T/C [6] 57.3% | viability, T/C [7] 51.4% | viability, T/C [8] 24% | viability, T/C [27] 17.5% | viability, T/C [9] 79.3% | viability, T/C [10] 65% | viability, T/C [11] 42% | viability, T/C [12] 29% | viability, T/C [29] 16.8% | viability, T/C [13] 59.7% | viability, T/C [14] 73.8% | viability, T/C [15] 54.1% | viability, T/C [16] 27.9% | viability, T/C [31] 18.5% | viability, T/C [32] 6.41% | viability, T/C [17] 53.7% | viability, T/C [18] 53.2% | viability, T/C [19] 40.2% | viability, T/C [20] 22.7% | viability, T/C [33] 13.2% | viability, T/C [21] 34.4% | viability, T/C [22] 32% | viability, T/C [23] 24.8% | viability, T/C [24] 13.5%
< 0.0316 µM: IC50 (second compound 10 µM)

Reference: PubChem BioAssay AID1963981 (Molecular Pharmacology Branch, DTP, NCI, 2024)
